The record followed here is ChEMBL document CHEMBL5325488, “Discovery of SMD-3040 as a Potent and Selective SMARCA2 PROTAC Degrader with Strong in vivo Antitumor Activity” (J Med Chem, 2023).

In data set [1] the target is von Hippel-Lindau disease tumor suppressor/SWI/SNF-related matrix-associated actin-dependent regulator of chromatin subfamily A member 4 (Homo sapiens, UniProt P51532+P40337). The data set can be described thus: PROTAC activity at VHL/C-terminal HiBiT fused SMARCA4 in human HeLa cells assessed as induction of SMARCA4 degradation incubated for 1 to 48 hrs by Nano-Glo HiBiT analysis. The settings on record: dose 0.001-10 µM, time 1-48 hrs. Type of data set: cell-based. On the technique in general: The HiBiT peptide binds its large partner to form an active luciferase.
von Hippel-Lindau disease tumor suppressor/SWI/SNF-related matrix-associated actin-dependent regulator of chromatin subfamily A member 4, sequence (P40337 whole entry, looked up, the tested form may be a part): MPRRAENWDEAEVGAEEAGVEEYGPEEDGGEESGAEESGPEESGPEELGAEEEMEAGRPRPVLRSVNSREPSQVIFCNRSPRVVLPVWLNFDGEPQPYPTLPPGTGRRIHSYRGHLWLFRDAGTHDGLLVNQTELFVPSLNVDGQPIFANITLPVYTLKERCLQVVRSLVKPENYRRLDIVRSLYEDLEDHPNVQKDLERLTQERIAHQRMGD
von Hippel-Lindau disease tumor suppressor/SWI/SNF-related matrix-associated actin-dependent regulator of chromatin subfamily A member 4, sequence (P51532 whole entry, looked up, the tested form may be a part): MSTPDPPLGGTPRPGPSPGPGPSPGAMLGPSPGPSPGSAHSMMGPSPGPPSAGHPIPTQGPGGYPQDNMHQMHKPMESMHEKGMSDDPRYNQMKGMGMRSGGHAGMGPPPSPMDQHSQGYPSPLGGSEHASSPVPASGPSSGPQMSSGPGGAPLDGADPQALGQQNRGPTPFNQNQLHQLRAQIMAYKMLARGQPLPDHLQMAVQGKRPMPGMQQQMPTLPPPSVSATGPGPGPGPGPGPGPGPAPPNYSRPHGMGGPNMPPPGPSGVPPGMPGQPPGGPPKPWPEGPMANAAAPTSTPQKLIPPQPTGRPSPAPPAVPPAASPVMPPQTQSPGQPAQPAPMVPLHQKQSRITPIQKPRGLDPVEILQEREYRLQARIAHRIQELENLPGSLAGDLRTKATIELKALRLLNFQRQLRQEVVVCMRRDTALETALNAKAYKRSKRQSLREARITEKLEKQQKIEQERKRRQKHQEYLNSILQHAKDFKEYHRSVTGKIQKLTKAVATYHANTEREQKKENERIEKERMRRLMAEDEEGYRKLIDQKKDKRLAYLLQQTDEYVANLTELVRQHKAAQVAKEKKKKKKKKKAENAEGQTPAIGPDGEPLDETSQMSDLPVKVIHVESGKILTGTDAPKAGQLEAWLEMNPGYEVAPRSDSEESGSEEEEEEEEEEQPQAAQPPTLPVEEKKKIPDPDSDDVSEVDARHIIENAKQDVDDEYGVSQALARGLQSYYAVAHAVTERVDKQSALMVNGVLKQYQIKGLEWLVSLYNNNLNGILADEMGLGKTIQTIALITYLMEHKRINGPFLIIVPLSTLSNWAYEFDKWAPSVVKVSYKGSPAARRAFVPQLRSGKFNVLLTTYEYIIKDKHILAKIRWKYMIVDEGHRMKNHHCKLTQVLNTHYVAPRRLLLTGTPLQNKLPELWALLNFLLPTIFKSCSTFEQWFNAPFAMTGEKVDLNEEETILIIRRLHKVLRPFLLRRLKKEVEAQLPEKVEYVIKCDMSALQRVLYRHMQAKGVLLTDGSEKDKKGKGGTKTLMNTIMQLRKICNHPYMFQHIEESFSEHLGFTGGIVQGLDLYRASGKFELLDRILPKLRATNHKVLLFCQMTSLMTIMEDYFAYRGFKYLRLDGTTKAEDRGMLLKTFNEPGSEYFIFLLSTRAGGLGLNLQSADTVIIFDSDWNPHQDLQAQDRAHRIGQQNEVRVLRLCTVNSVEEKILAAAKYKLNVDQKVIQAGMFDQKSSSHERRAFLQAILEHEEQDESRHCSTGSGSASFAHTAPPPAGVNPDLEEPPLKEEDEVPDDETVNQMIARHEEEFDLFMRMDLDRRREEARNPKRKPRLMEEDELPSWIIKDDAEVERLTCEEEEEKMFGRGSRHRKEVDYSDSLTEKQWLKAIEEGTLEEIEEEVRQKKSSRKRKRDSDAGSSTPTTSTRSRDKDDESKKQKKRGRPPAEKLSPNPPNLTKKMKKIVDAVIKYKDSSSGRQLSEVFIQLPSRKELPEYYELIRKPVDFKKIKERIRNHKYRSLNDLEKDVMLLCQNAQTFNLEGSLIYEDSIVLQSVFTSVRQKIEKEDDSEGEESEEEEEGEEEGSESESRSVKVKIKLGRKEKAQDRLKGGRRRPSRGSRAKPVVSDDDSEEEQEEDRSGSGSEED

The test system of data set [2] is NCI-H1944. Briefly: Antiproliferative activity against SMARCA4-deficient human NCI-H1944 cells assessed as cell growth inhibition by measuring maximal efficacy measured after 7 days by WST-8 assay relative to control. To be noted: time 7 day. Type of data set: functional.
The test system of data set [3] is SK-MEL-28. Briefly: Antiproliferative activity against human SK-MEL-28 cells expressing wild-type SMARCA2 assessed as cell growth inhibition by measuring maximal efficacy measured after 7 days by WST-8 assay relative to control. The format is functional. To be noted: time 7 day. Background: Tetrazolium dyes change colour on reduction, which living cells bring about.

Data set [4] concerns the target T1, von Hippel-Lindau disease tumor suppressor/SWI/SNF-related matrix-associated actin-dependent regulator of chromatin subfamily A member 2 (Homo sapiens, UniProt P51531+P40337). The data set can be described thus: In vivo PROTAC activity at VHL/SMARCA2 in SCID mouse xenografted with human NCI-H838 cells assessed as reduction of SMARCA2 level in tumor at 50 mg/kg, iv administered as single dose measured after 24 hrs by Western blotting analysis. The format is functional, organism-based. Also on record: scale not given: the % may be the effect or the level left. In general terms: A xenograft is tissue or cells of one species grown in another, often human tumour cells in immunodeficient mice.
Target sequence in this assay (P40337 whole entry, looked up): as the sequence (P40337 whole entry, looked up, the tested form may be a part) above
Target sequence in this assay (P51531 whole entry, looked up): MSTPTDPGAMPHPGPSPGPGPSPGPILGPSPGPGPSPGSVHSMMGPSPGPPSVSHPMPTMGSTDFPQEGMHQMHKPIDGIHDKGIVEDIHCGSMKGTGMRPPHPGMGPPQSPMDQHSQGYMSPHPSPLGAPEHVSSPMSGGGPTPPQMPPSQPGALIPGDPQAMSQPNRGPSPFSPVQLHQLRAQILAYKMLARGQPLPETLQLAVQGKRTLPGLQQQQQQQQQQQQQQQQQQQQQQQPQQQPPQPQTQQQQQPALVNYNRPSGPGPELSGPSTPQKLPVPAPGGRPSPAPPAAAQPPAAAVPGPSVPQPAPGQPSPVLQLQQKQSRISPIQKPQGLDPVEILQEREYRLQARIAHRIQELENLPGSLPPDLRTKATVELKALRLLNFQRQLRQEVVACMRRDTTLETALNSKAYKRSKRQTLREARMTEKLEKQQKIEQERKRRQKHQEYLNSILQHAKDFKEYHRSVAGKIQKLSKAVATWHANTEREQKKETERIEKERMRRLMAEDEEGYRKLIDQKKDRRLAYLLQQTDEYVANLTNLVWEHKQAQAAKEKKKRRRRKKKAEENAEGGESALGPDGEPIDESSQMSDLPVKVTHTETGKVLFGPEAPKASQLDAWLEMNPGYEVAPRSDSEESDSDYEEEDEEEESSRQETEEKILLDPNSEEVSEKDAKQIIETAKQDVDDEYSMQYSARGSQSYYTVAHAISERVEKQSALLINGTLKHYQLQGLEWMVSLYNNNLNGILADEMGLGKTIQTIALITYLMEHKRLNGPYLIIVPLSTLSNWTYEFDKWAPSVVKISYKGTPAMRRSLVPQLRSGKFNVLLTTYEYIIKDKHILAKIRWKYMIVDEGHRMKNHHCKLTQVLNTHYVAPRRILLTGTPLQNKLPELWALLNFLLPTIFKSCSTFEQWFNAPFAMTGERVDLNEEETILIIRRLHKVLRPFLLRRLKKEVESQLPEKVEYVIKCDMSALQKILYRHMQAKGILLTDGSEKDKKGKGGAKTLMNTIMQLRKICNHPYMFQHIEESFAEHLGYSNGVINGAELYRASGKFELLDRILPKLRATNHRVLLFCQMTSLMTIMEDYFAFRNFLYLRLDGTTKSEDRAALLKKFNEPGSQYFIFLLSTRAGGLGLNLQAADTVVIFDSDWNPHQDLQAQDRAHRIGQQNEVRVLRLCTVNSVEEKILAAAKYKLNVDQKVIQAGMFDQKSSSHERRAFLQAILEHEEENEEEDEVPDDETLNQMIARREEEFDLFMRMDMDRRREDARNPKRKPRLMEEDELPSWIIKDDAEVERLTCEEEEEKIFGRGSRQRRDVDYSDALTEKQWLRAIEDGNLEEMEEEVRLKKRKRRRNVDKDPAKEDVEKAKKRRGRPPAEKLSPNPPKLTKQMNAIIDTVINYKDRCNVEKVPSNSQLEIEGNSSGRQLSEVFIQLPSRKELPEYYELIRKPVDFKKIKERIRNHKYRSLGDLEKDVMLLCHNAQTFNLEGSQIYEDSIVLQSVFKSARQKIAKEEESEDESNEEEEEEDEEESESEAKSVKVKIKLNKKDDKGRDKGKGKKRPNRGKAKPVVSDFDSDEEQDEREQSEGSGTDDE

Data set [5] concerns the target T1, von Hippel-Lindau disease tumor suppressor/SWI/SNF-related matrix-associated actin-dependent regulator of chromatin subfamily A member 2. Briefly: In vivo PROTAC activity at VHL/SMARCA2 in SCID mouse xenografted with human NCI-H838 cells assessed as remaining activity in tumor at 50 mg/kg, iv administered as single dose measured after 96 hrs by Western blotting analysis (reference value: 100 +/- 7% ). Type of data set: functional, organism-based.
Target sequence in this assay (P40337 whole entry, looked up): as the sequence (P40337 whole entry, looked up, the tested form may be a part) above
Target sequence in this assay (P51531 whole entry, looked up): as the sequence (P51531 whole entry, looked up) above

The target is the same in data set [6]. The data set can be described thus: In vivo PROTAC activity at VHL/SMARCA2 in SCID mouse xenografted with human MV4-11 cells assessed as reduction of SMARCA2 level in tumor at 50 mg/kg, iv administered as single dose measured after 72 hrs by Western blotting analysis. Type of data set: ADME, organism-based. Also on record: scale not given: the % may be the effect or the level left.
Target sequence in this assay (P51531 whole entry): as the sequence (P51531 whole entry, looked up) above
Target sequence in this assay (P40337 whole entry): as the sequence (P40337 whole entry, looked up, the tested form may be a part) above

Data set [7] can be described thus: Drug concentration in SCID mouse plasma xenografted with human MV4-11 cells at 50 mg/kg, iv measured after 6 hrs by LC-MS/MS method. Type of data set: ADME, organism-based.
Data set [8] concerns SK-MEL-5. The data set can be described thus: Antitumor activity against SMARCA4-deficient human SK-MEL-5 cells xenografted in SCID mouse assessed as tumor growth inhibition at 50 mg/kg, iv administered twice a week measured after 32 days relative to control. Type of data set: functional. The settings on record: SK-MEL-5, 768 h, time 32 day, read-out: TGI.

Regarding `Cc1ncsc1-c1ccc([C@H](C)NC(=O)[C@@H]2C[C@@H](O)CN2C(=O)[C@@H](NC(=O)[C@H]2CC[C@H](CN3CC4(CCC(n5cc(-c6cc(-c7ccccc7O)nnc6N)cn5)CC4)C3)CC2)C(C)(C)C)cc1`, the Activity result was “Dose-Dependent Effect” in data set [1], 91% in data set [4], 33% in data set [5] and 56% in data set [6]. Further, the Imax amounted to 88% in data set [2] and 15% in data set [3]. The concentration at 6 h in data set [7] is 766 ng/mL. Besides, in data set [8], the inhibition in vivo at 50 mg/kg was determined as 74%.
